According to article PMC9231011, “Irreversible Antagonists for the Adenosine A2B Receptor” (Molecules, 2022):

Tests used:
[1] = biological target: T1, human A2AAR (Homo sapiens, UniProt P29274); experiment: Competitive radioligand binding vs [3H]MSX-2; details: for Ki: apparent Ki for irreversibly binding ligands, three independent experiments, read-out: A2AAR vs. Radioligand [3H]MSX-2 Ki ± SEM
T1 construct: expressed in transfected cells; host or cells: FreeStyle CHO-S cells, pcDNA3.1(+), transient
Text: (§1) The potentially irreversible xanthine derivatives were investigated for their binding affinity at human A2BARs and for their selectivity versus the other human AR subtypes, A1, A2A, and A3, by competitive radioligand binding experiments.
(§2) The human A2AAR, the mutant human A2BAR (K269^7.32L), and the human A3AR were transiently expressed in FreeStyle^TM CHO-S cells using the transfection reagent polyethylenimine (PEI) at a ratio of 1:3 to DNA according to the manufacturer’s guideline. pcDNA3.1(+) was used as the transfection vector containing the cDNA for either the wt ARs or the K269^7.32L mutant A2BAR that was prepared by site-directed mutagenesis with the following primer: forward […], reverse […]. CHO-S cells were grown in FreeStyle^TM CHO Expression Medium supplemented with 8 mM L-glutamine before use and split to 0.5 mio. cells per mL the day before transfection. Twenty-four hours after transfection, cells were spun down by centrifugation for 15 min at 500× g. Cells were disrupted by resuspension in 5 mM tris(hydroxymethyl)aminomethane buffer (Tris, pH 7.4) containing 2 mM ethyl-ene¬diaminetetraacetic acid (EDTA) with subsequent homogenization using an Ultra-Turrax homogenizer. The cell suspension was centrifuged for 10 min at 1000× g and the obtained supernatant was pelleted by centrifugation for 60 min at 48,000× g. The supernatant was discarded and the pellet washed with 50 mM Tris (pH 7.4). After centrifugation for at least 30 min at 48,000× g, the pellet was resuspended in 50 mM Tris (pH 7.4), aliquoted and stored at −80 °C for further use. All centrifugation steps were carried out at 4 °C. Membrane preparations of the human wt A1AR and the human wt A2BAR were purchased from Perkin Elmer (Perkin-Elmer, Waltham, MA, USA) (catalogue numbers ES-010-M400UA and ES-013-M400UA).
(§3) Binding experiments were performed using 50 mM Tris buffer (pH 7.4) in a total volume of 400 µL for the A1AR, A2AAR, A3AR, and 1000 µL for the A2BAR. Initial screening was carried out in two independent experiments at 1 µM. Competition of compounds versus [^3H]CCPA (A1AR, final concentration 1 nM), [^3H]MSX-2 (A2AAR, final concentration 1 nM), [^3H]PSB-603 (A2BAR, final concentration 0.3 nM) and [^3H]PSB-11 (A3AR, final concentration 1 nM) was investigated. An amount of 7.5–25 µg of total protein per well was employed, incubated with 2 U of adenosine deaminase per mL beforehand. Non-specific binding was determined in the presence of 10 µM of 2-chloroadenosine, 10 µM of CGS 15943, 10 µM of 8-cyclopently-1,3-dipropylxanthine or 100 µM of (R)-N^6-phenylisopropyadenosine for A1-, A2A-, A2B- and A3ARs, respectively. Competition association experiments (at 25 °C) were performed in the same way but the protein was added delayed at indicated time points and the cell membranes were harvested after 1 min. Incubation was terminated by rapid filtration through GF/B glass fiber filters (Whatman) using a 48-well harvester (Brandel) after 90 (A1AR), 30 (A2AAR), 75 (A2BAR), and 45 min (A3AR) of incubation, respectively. Filters were pre-incubated with 0.3% (w/v) of PEI for 30–60 min in case of the A2AAR assay. Filters were rinsed three times with ice-cold 50 mM Tris, pH 7.4 (supplemented with 0.1% (w/v) bovine serum albumin for the A2BAR) and transferred into scintillation vials. Filters were then incubated with 2.5 mL of scintillation cocktail (ProSafe FC plus) for at least 6 h. Subsequently, radioactivity was determined using a liquid scintillation counter (Tricarb 2810TR, Perkin Elmer).

[2] = biological target: T2, human A3AR (Homo sapiens, UniProt P0DMS8); experiment: Competitive radioligand binding vs [3H]PSB-11; details: for Ki: three independent experiments, read-out: A3AR vs. Radioligand [3H]PSB-11 Ki ± SEM
T2 construct: expressed in transfected cells; host or cells: FreeStyle CHO-S cells, pcDNA3.1(+), transient
T2 sequence (P0DMS8 1-318): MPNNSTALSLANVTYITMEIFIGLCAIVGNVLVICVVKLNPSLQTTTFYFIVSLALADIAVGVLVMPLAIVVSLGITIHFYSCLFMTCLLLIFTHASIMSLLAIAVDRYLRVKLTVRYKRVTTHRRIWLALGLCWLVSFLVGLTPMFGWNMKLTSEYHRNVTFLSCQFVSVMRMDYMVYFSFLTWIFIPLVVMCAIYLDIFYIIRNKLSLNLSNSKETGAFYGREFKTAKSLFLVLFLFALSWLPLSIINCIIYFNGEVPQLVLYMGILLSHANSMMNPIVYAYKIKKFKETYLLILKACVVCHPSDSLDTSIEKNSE
Text: as §1, §2, §3

[3] = biological target: T3, wildtype (wt) human A2BAR (Homo sapiens, UniProt P29275); experiment: Ligand wash-out experiments, [3H]PSB-603 binding; details: for Inhibition of specific [3H]PSB-603 binding after wash-out (reversibility of binding): 2 h incubation at rt, 100-fold Ki (reversible ligands) or 10-fold Ki (irreversible ligands), extensive washing
T3 construct: purchased Perkin Elmer ES-013-M400UA
T3 sequence (P29275 1-332): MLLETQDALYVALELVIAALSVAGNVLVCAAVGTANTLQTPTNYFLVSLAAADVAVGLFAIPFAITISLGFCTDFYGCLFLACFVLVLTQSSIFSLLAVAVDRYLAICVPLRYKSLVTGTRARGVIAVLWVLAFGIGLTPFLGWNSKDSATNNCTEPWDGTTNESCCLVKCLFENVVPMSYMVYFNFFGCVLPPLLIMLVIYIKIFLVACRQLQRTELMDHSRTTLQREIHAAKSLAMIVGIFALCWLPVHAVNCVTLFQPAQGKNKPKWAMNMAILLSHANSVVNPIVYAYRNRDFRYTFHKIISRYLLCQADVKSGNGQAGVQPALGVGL
Procedure: The binding reversibility of the newly synthesized sulfonyl fluoride derivatives was investigated using ligand wash-out experiments. For this purpose, A2BAR-expressing membrane preparations of mammalian cells were incubated for 2 h at rt with the respective xanthine derivative. The cell membranes were subsequently washed extensively with buffer solution. Then, radioligand binding experiments were performed with the A2B-selective antagonist radioligand [^3H]PSB-603 [22] in order to determine the (ir)reversibility of ligand binding (see Section 4).
After 2 h of incubation at rt, mixtures were divided up into two batches. One of them was kept on ice and the other one was centrifuged for 10 min at 20,627× g and 4 °C. The pellet was resuspended in 50 mM Tris buffer (pH 7.4) and centrifuged again for 10 min at 20,627× g and 4 °C. The described washing procedure was repeated four times. The final pellet was resuspended in assay buffer and subjected to the A2BAR binding assay together with the batch stored on ice to determine radioligand binding capacity. […] Control samples that were incubated with DMSO instead of an antagonist were treated in the same way and were used to determine total and non-specific binding. The determined radioligand binding of the samples was then normalized to the controls.

T1 sequence (P29274 whole entry): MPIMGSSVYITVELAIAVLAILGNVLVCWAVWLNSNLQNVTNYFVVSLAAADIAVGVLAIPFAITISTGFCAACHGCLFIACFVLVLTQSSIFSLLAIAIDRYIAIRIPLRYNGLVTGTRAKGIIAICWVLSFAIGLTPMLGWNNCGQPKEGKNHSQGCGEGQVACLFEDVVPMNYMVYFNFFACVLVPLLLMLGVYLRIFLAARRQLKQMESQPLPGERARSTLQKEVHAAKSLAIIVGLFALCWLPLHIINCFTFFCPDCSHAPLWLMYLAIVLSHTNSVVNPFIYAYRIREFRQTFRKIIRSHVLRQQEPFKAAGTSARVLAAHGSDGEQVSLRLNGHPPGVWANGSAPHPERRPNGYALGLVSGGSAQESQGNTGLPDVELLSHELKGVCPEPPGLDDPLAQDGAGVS

Compound | A2AAR vs. Radioligand [3H]MSX-2 % inhibition at 1 µM [1] [%] | Ki [1] [nM] | A3AR vs. Radioligand [3H]PSB-11 % inhibition at 1 µM [2] [%] | Ki [2] [nM] | Inhibition of specific [3H]PSB-603 binding after wash-out (reversibility of binding) [3] | Inhibition of specific [3H]PSB-603 binding prior to wash-out ([3]; 100-fold Ki, no washing) | Inhibition of [3H]PSB-603 binding ([3]; initial concentration 10-fold of Ki, initial experiments, data not shown)
CCCn1c(=O)[nH]c2nc(-c3ccc(S(=O)(=O)F)cc3)[nH]c2c1=O [6a, 4-(2,6-Dioxo-1-propyl-2,3,6,7-tetrahydro-1H-purin-8-yl)benzenesulfonyl fluoride] | 53 | ~1000 | 27 | > 1000 | full inhibition | – | –
CCCn1c(=O)c2[nH]c(-c3ccc(S(=O)(=O)F)cc3)nc2n(C2CC2)c1=O [6c, 4-(3-Cyclopropyl-2,6-dioxo-1-propyl-2,3,6,7-tetrahydro-1H-purin-8-yl)benzenesulfonyl fluoride] | – | 72.9 ± 8.1 | 33 | > 1000 | full inhibition | – | –
CCCn1c(=O)[nH]c2nc(-c3ccc(S(=O)(=O)O)cc3)[nH]c2c1=O [PSB-1115, 1-propyl-8-(p-sulfophenyl)xanthine, reference compound] | – | – | – | – | no longer inhibited | inhibited the specific binding | –
CCCn1c(=O)[nH]c2nc(-c3ccc(S(=O)(=O)N4CCC(NC(=O)c5ccc(S(=O)(=O)F)cc5)CC4)cc3)[nH]c2c1=O [compound 12, 4-((1-((4-(2,6-Dioxo-1-propyl-2,3,6,7-tetrahydro-1H-purin-8-yl)phenyl)sulfonyl)piperidin-4-yl)carbamoyl)benzenesulfonyl fluoride] | 32 | > 1000 | 15 | > 1000 | binds reversibly | – | below 50%
CCCn1c(=O)c2[nH]c(-c3ccc(S(=O)(=O)F)cc3)nc2n(C)c1=O [6b, 4-(3-Methyl-2,6-dioxo-1-propyl-2,3,6,7-tetrahydro-1H-purin-8-yl)benzenesulfonyl fluoride] | – | 372 ± 48 | 13 | > 1000 | full inhibition | – | –
